Experimental findings from patent US12486269B2 (Aconcagua Bio, Inc., priority 2024, dated 2025) are described below.

What is called EC50 is the concentration that produces a half-maximal response.

For assay [1], the target named is T1, COS-7/AMY3 (human calcitonin receptor (CTR) and RAMP3) (Homo sapiens, UniProt O60896+P30988).
T1 construct: expressed in transfected cells; host or cells: COS-7
Description: Amylin Receptor cAMP Assay II. As to conditions: values marked **: Amylin Receptor cAMP Assay II; COS-7/AMY3 cells, cAMP dynamic 2 kit, 30 min; read-out: Amylin Receptor cAMP Stimulation Activity: EC50. The class given is cell-based. From the text: AMYRs are heterodimers of the class B calcitonin (CT) G-protein-coupled receptor (CTR) and receptor activity-modifying proteins (RAMPs). All three RAMPs can interact with the CTR and form AMY1, AMY2, AMY3 with RAMP1, RAMP2 and RAMP3, respectively. Like other class B1 GPCRs, the CT receptor family is canonically coupled to Gs-mediated cAMP production, and measurement of cAMP accumulation has been the primary assay used to determine peptide selectivity and potency.
(§1) To optimize functional activity directed toward Gαs coupling, COS-7 cells were stably transfected with human calcitonin receptor (CTR) and RAMP3, simultaneously. 100×concentration of compound working solutions were prepared with 4-fold serial dilution in 384-well Echo LDV plate (Labcyte, Cat #LP-0200-BC). 200 nL/well 100×concentration of compound working solutions were moved to 384-well white microplate (Perkin Elmer, Cat #6007680) using Labcyte ECHO550. 1×10^5 cells/mL COS-7/AMY3 cell suspensions prepared with assay buffer [HBSS containing 20 mM HEPES (Gibco, Cat #15630-080), 0.5 mM IBMX (Sigma, Cat #15879) and 0.1% Casein (Sigma, Cat #C4765)], 20 μL cell suspensions were added to each well of previous generated assay plate which already contains 200 nL compound at 100×concentration using ThermoFisher Multidrop Combi (2000 cells/well). Seal the plate and incubate at 37° C. with 5% CO2 for 30 min.
(§2) After incubation, the cAMP assay signal was generated using cAMP dynamic 2 kit (Revvity, Cat #62AM4PEC). 10 μL cAMP-d2 working solution was added to each well, followed by 10 μL Anti-cAMP antibody-cryptate working solution which was added to each well using CERTUS FLEX LIQUID […]. The samples were then incubated at room temperature for 1 hour protected from light. the fluorescence was read at 665 and 615 nm with Reader PerkinElmer EnVision 2105. % Activity=100−(mean RLU of test sample−mean RLU of positive control)/(mean RLU of vehicle control−mean RLU of positive control)×100 Calcitonin Receptor (CTR) cAMP Assay

Assay [2] addresses T2, human calcitonin receptor (CTR) (Homo sapiens, UniProt P30988).
T2 construct: expressed in transfected cells; host or cells: COS-7 (COS7-human CTR Clone #2)
T2 sequence (P30988 25-474): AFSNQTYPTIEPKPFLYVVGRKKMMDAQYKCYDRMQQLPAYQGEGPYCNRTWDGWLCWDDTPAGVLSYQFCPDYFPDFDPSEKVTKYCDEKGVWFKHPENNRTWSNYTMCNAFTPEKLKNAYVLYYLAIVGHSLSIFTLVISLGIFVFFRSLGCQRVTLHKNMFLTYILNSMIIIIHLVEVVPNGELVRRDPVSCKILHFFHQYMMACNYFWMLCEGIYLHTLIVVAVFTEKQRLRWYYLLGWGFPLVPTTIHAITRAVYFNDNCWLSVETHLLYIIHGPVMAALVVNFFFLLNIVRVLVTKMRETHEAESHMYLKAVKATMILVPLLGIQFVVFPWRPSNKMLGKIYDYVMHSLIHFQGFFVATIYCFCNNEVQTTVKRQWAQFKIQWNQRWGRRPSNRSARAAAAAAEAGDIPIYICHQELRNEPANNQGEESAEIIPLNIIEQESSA
Description: Calcitonin Receptor (CTR) cAMP Assay. In kind it is cell-based. To be noted: COS7-human CTR Clone #2 stable cell line, cAMP dynamic 2 kit, 30 min; read-out: Calcitonin Receptor cAMP Stimulation Activity: EC50. How it is done: as §2
The calcitonin receptor (CTR) belongs to the subfamily of GPCRs known as the secretin or ‘B’ family of GPCRs. Like other class B1 GPCRs, the CT receptor family is canonically coupled to Gs-mediated cAMP production, and measurement of cAMP accumulation has been the primary assay used to determine peptide selectivity and potency.
as §1, with “to create COS7-human CTR Clone #2 stable cell line.” for “and RAMP3, simultaneously.”, “COS7-human CTR Clone #2” for “COS-7/AMY3”
After incubation, the cAMP assay signal was generated using cAMP dynamic 2 kit (Revvity, Cat #62AM4PEC). 10 μL cAMP-d2 working solution was added to each well, followed by 10 μL Anti-cAMP antibody-cryptate working solution which was added to each well using CERTUS FLEX LIQUID […]. The samples were then incubated at room temperature for 1 hour protected from light. the fluorescence was read at 665 and 615 nm with Reader PerkinElmer EnVision 2105. % Activity=100−(mean RLU of test sample−mean RLU of positive control)/(mean RLU of vehicle control−mean RLU of positive control)×100

T1 sequence (O60896 24-148, one chain of several): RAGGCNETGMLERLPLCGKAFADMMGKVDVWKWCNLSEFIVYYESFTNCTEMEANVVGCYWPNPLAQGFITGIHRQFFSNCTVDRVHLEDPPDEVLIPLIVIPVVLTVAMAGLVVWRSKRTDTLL

Regarding `O=C1c2c(nc(CCc3ccc(F)cc3)c(-c3n[nH]c(=O)o3)c2-c2cc3ccnc(N[C@@H]4CCc5cc(F)ccc54)c3s2)C23CC(CN12)C3` [Compound 280, (R)-5-(4-(7-((5-fluoro-2,3-dihydro-1H-inden-1-yl)amino)thieno[2,3-c]pyridin-2-yl)-2-(4-fluorophenethyl)-5-oxo-5,7,8,9-tetrahydro-8,9a-methanopyrido[2,3-a]pyrrolizin-3-yl)-1,3,4-oxadiazol-2(3H)-one], the figures for the EC50 in assay [1] and in assay [2] were 0.935 nM and 0.114 nM, respectively.
The corresponding values for `COc1cc(F)cc2c1CC[C@H]2Nc1nccc2cc(-c3c4c(nc(CCc5ccc(F)cc5)c3-c3n[nH]c(=O)o3)C35CC(CN3C4=O)C5)sc12` [Compound 294, (R)-5-(4-(7-((6-fluoro-4-methoxy-2,3-dihydro-1H-inden-1-yl)amino)thieno[2,3-c]pyridin-2-yl)-2-(4-fluorophenethyl)-5-oxo-5,7,8,9-tetrahydro-8,9a-methanopyrido[2,3-a]pyrrolizin-3-yl)-1,3,4-oxadiazol-2(3H)-one] are 0.562 nM and 0.0435 nM.
For `CC(C)C1CS(=O)(=O)c2c1nc(CCc1ccc(F)cc1)c(-c1n[nH]c(=O)o1)c2-c1ccc2c(c1)oc(=O)n2Cc1ccc(C#N)cn1` (centres unmarked) [Compound 163, 6-((6-(5-(4-fluorophenethyl)-3-isopropyl-1,1-dioxido-6-(5-oxo-4,5-dihydro-1,3,4-oxadiazol-2-yl)-2,3-dihydrothieno[3,2-b]pyridin-7-yl)-2-oxobenzo[d]oxazol-3(2H)-yl)methyl)nicotinonitrile] the same measures were 11.2 nM and 0.588 nM.
For `COc1cccc2c1CC[C@H]2Nc1nccc2cc(-c3c4c(nc(CCc5cc(F)cs5)c3-c3n[nH]c(=O)o3)[C@@H]3CCCN3C4=O)sc12` [Compound 245, 5-((S)-2-(2-(4-fluorothiophen-2-yl)ethyl)-4-(7-(((R)-4-methoxy-2,3-dihydro-1H-inden-1-yl)amino)thieno[2,3-c]pyridin-2-yl)-5-oxo-7,8,9,9a-tetrahydro-5H-pyrido[2,3-a]pyrrolizin-3-yl)-1,3,4-oxadiazol-2(3H)-one] the same measures were 19.1 nM and 0.469 nM.
As to `COc1nccc2c1CC[C@H]2Nc1nccc2cc(-c3c4c(nc(CCc5ccc(F)cc5)c3-c3n[nH]c(=O)o3)C35CC(CN3C4=O)C5)sc12` [Compound 264, (R)-5-(2-(4-fluorophenethyl)-4-(7-((1-methoxy-6,7-dihydro-5H-cyclopenta[c]pyridin-5-yl)amino)thieno[2,3-c]pyridin-2-yl)-5-oxo-8,9-dihydro-5H,7H-8,9a-methanopyrido[2,3-a]pyrrolizin-3-yl)-1,3,4-oxadiazol-2(3H)-one], the EC50 was 7.4 nM in assay [1] and 0.247 nM in assay [2].
Turning to `COc1cccc2c1CC[C@H]2Nc1nccc2cc(-c3c4c(nc(CCc5ccc(-n6cccn6)cc5)c3-c3n[nH]c(=O)o3)[C@@H]3CCCN3C4=O)sc12` [Compound 243, 5-((S)-2-(4-(1H-pyrazol-1-yl)phenethyl)-4-(7-(((R)-4-methoxy-2,3-dihydro-1H-inden-1-yl)amino)thieno[2,3-c]pyridin-2-yl)-5-oxo-7,8,9,9a-tetrahydro-5H-pyrido[2,3-a]pyrrolizin-3-yl)-1,3,4-oxadiazol-2(3H)-one], the half-maximal effective concentration (EC50) in assay [1] amounted to 11.2 nM; in assay [2], 1.18 nM.
The corresponding values for `N#Cc1ccc(Cn2ccc3cc(-c4c5c(nc(CCC67CCC(CC6)OC7)c4-c4n[nH]c(=O)o4)[C@@H]4CCCN4C5=O)cnc32)c(F)c1` [Compound 231, (S)-4-((5-(2-(2-(2-oxabicyclo[2.2.2]octan-4-yl)ethyl)-5-oxo-3-(5-oxo-4,5-dihydro-1,3,4-oxadiazol-2-yl)-7,8,9,9a-tetrahydro-5H-pyrido[2,3-a]pyrrolizin-4-yl)-1H-pyrrolo[2,3-b]pyridin-1-yl)methyl)-3-fluorobenzonitrile] are 15300 nM and 171 nM.
